Source: patent publication US20150191462A1, “PYRROLIDINE DERIVATIVES AND THEIR USE AS COMPLEMENT PATHWAY MODULATORS” (priority 2012, published 2015)

biological target: Recombinant human factor D (Homo sapiens, UniProt P00746); test: Human Complement Factor D Assay: Method 1; format: biochemical; settings: Factor D inhibition, 10 nM factor D, Z-Lys-thiobenzyl substrate, fluorescence readout
Description: Human Complement Factor D Assay: Method 1 Recombinant human factor D (expressed in E. coli and purified using standard methods) at 10 nM concentration is incubated with test compound at various concentrations for 1 hour at room temperature in 0.1 M Hepes buffer, pH 7.5, containing 1 mM MgCl2, 1 M NaCl and 0.05% CHAPS. […] The increase in fluorescence is recorded at excitation of 485 nm and emission at 535 nm in a microplate spectrofluorimeter. IC50 values are calculated from percentage of inhibition of complement factor D-activity as a function of test compound concentration.

Sequence of Recombinant human factor D (P00746 26-253): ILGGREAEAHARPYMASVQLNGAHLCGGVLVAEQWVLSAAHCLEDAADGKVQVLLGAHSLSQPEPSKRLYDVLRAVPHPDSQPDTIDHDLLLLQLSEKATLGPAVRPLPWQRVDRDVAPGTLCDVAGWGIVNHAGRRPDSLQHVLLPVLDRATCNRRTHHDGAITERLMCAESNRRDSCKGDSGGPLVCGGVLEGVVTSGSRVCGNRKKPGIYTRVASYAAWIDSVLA

Point of comparison: `NC(=O)c1nn(CC(=O)N2CC[C@H](F)[C@H]2C(=O)Nc2cccc(Br)n2)c2ccccc12` [Example 27, 1-(2-((2R,3S)-2-((6-bromopyridin-2-yl)carbamoyl)-3-fluoropyrrolidin-1-yl)-2-oxoethyl)-1H-indazole-3-carboxamide], IC50 80 nM. Against it:
- NC(=O)c1nn(CC(=O)N2[C@@H]3C[C@@H]3C[C@H]2C(=O)Nc2cncc(Br)n2)c2ncccc12 [Example 1, 1-{2-[(1R,3S,5R)-3-(6-Bromo-pyrazin-2-ylcarbamoyl)-2-aza-bicyclo[3.1.0]hex-2-yl]-2-oxo-ethyl}-1H-pyrazolo[3,4-b]pyridine-3-carboxylic acid amide] — 4.2-fold lower, 19 nM
- CCc1cc2c(C(N)=O)nn(CC(=O)N3[C@@H]4C[C@@H]4C[C@H]3C(=O)Nc3cccc(C(F)(F)F)n3)c2cn1 [Example 2, 5-Ethyl-1-{2-oxo-2-[(1R,3S,5R)-3-(6-trifluoromethyl-pyridin-2-ylcarbamoyl)-2-aza-bicyclo[3.1.0]hex-2-yl]-ethyl}-1H-pyrazolo[3,4-c]pyridine-3-carboxylic acid amide] — 4.4-fold lower, 18 nM
- NC(=O)c1nn(CC(=O)N2[C@@H]3C[C@@H]3C[C@H]2C(=O)Nc2cccc(Br)n2)c2nnccc12 [Example 3, 1-{2-[(1R,3S,5R)-3-(6-Bromo-pyridin-2-ylcarbamoyl)-2-aza-bicyclo[3.1.0]hex-2-yl]-2-oxo-ethyl}-1H-pyrazolo[3,4-c]pyridazine-3-carboxylic acid amide] — 3.3-fold lower, 24 nM
- NC(=O)c1nn(CC(=O)N2[C@@H]3C[C@@H]3C[C@H]2C(=O)Nc2cccc(Br)n2)c2cnc(C3CC3)cc12 [Example 5, 1-{2-[(1R,3S,5R)-3-(6-Bromo-pyridin-2-ylcarbamoyl)-2-aza-bicyclo[3.1.0]hex-2-yl]-2-oxo-ethyl}-5-cyclopropyl-1H-pyrazolo[3,4-c]pyridine-3-carboxylic acid amide] — 20-fold lower, 4 nM
- CC(=O)c1nn(CC(=O)N2[C@@H]3C[C@@H]3C[C@H]2C(=O)Nc2cccc(OC(F)F)n2)c2ccc(OCc3ncccn3)cc12 [Example 6, (1R,3S,5R)-2-{2-[3-Acetyl-5-(pyrimidin-2-ylmethoxy)-indazol-1-yl]-acetyl}-2-aza-bicyclo[3.1.0]hexane-3-carboxylic acid (6-difluoromethoxy-pyridin-2-yl)-amide] — 2.1-fold lower, 38 nM
- Cc1ncc(NC(=O)[C@@H]2C[C@H]3C[C@H]3N2C(=O)Cn2nc(C(N)=O)c3ccccc32)nc1Br [Example 7, 1-{2-[(1R,3S,5R)-3-(6-Bromo-5-methyl-pyrazin-2-ylcarbamoyl)-2-aza-bicyclo[3.1.0]hex-2-yl]-2-oxo-ethyl}-1H-indazole-3-carboxylic acid amide] — 13-fold lower, 6 nM
- Cc1ccc2c(C(N)=O)nn(CC(=O)N3[C@@H]4C[C@@H]4C[C@H]3C(=O)Nc3cccc(Br)n3)c2c1 [Example 8, 1-{2-[(1R,3S,5R)-3-(6-Bromo-pyridin-2-ylcarbamoyl)-2-aza-bicyclo[3.1.0]hex-2-yl]-2-oxo-ethyl}-6-methyl-1H-indazole-3-carboxylic acid amide] — 16-fold lower, 5 nM
- NC(=O)c1nn(CC(=O)N2[C@@H]3C[C@@H]3C[C@H]2C(=O)Nc2cncc(C(F)(F)F)n2)c2ccccc12 [Example 9, 1-{2-Oxo-2-[(1R,3S,5R)-3-(6-trifluoromethyl-pyrazin-2-ylcarbamoyl)-2-aza-bicyclo[3.1.0]hex-2-yl]ethyl}-1H-indazole-3-carboxylic acid amide] — 2.5-fold lower, 32 nM
- NC(=O)c1nn(CC(=O)N2[C@@H]3C[C@@H]3C[C@H]2C(=O)Nc2cccc(Br)n2)c2ccncc12 [Example 10, 1-{2-[(1R,3S,5R)-3-(6-Bromo-pyridin-2-ylcarbamoyl)-2-aza-bicyclo[3.1.0]hex-2-yl]-2-oxo-ethyl}-1H-pyrazolo[4,3-c]pyridine-3-carboxylic acid amide] — 8.9-fold lower, 9 nM
- NC(=O)c1nn(CC(=O)N2[C@@H]3C[C@@H]3C[C@H]2C(=O)Nc2cccc(Br)n2)c2cc(F)ccc12 [Example 11, 1-{2-[(1R,3S,5R)-3-(6-Bromo-pyridin-2-ylcarbamoyl)-2-aza-bicyclo[3.1.0]hex-2-yl]-2-oxo-ethyl}-6-fluoro-1H-indazole-3-carboxylic acid amide] — 16-fold lower, 5 nM
- CC(=O)c1nn(CC(=O)N2[C@@H]3C[C@@H]3C[C@H]2C(=O)Nc2cnc(C)c(Br)n2)c2cnccc12 [Example 12, (1R,3S,5R)-2-[2-(3-Acetyl-pyrazolo[3,4-c]pyridin-1-yl)-acetyl]-2-aza-bicyclo[3.1.0]hexane-3-carboxylic acid (6-bromo-5-methyl-pyrazin-2-yl)-amide] — 5-fold lower, 16 nM
- CC(=O)c1nn(CC(=O)N2C[C@H](F)C[C@H]2C(=O)Nc2cccc(Br)n2)c2cnccc12 [Example 13, (2S,4R)-1-[2-(3-Acetyl-pyrazolo[3,4-c]pyridin-1-yl)-acetyl]-4-fluoro-pyrrolidine-2-carboxylic acid (6-bromo-pyridin-2-yl)-amide] — 8.9-fold lower, 9 nM
- CC(=O)c1nn(CC(=O)N2[C@@H]3C[C@@H]3C[C@H]2C(=O)Nc2cncc(Br)n2)c2cnccc12 [Example 14, (1R,3S,5R)-2-[2-(3-Acetyl-pyrazolo[3,4-c]pyridin-1-yl)-acetyl]-2-aza-bicyclo[3.1.0]hexane-3-carboxylic acid (6-bromo-pyrazin-2-yl)-amide] — 7.3-fold lower, 11 nM
- CC(=O)c1nn(CC(=O)N2C[C@H]3C[C@H]3[C@H]2C(=O)Nc2cccc(Br)n2)c2cnccc12 [Example 15, (1R,2S,5S)-3-[2-(3-Acetyl-pyrazolo[3,4-c]pyridin-1-yl)-acetyl]-3-aza-bicyclo[3.1.0]hexane-2-carboxylic acid (6-bromo-pyridin-2-yl)-amide] — 5.7-fold lower, 14 nM
- CC(=O)c1nn(CC(=O)N2[C@@H]3C[C@@H]3C[C@H]2C(=O)Nc2cncc(C(F)(F)F)n2)c2ccccc12 [Example 16, (1R,3S,5R)-2-[2-(3-Acetyl-indazol-1-yl)-acetyl]-2-aza-bicyclo[3.1.0]hexane-3-carboxylic acid (6-trifluoromethyl-pyrazin-2-yl)-amide] — 4.7-fold lower, 17 nM
- CC(=O)c1nn(CC(=O)N2[C@@H]3C[C@@H]3C[C@H]2C(=O)Nc2cncc(C(F)(F)F)n2)c2cnccc12 [Example 17, (1R,3S,5R)-2-[2-(3-Acetyl-pyrazolo[3,4-c]pyridin-1-yl)-acetyl]-2-aza-bicyclo[3.1.0]hexane-3-carboxylic acid (6-trifluoromethyl-pyrazin-2-yl)-amide] — within 1.5-fold, 64 nM
- CO[C@H]1[C@@H](C(=O)Nc2cccc(Br)n2)N(C(=O)Cn2nc(C(C)=O)c3ccncc32)C[C@@H]1F [Example 18, (2S,3S,4S)-1-[2-(3-Acetyl-pyrazolo[3,4-c]pyridin-1-yl)-acetyl]-4-fluoro-3-methoxy-pyrrolidine-2-carboxylic acid (6-bromo-pyridin-2-yl)-amide] — 11-fold lower, 7 nM
- C[C@@]1(F)C[C@@H](C(=O)Nc2cccc(Br)n2)N(C(=O)Cn2nc(C(N)=O)c3ccccc32)C1 [Example 19, 1-{2-[(2S,4R)-2-(6-Bromo-pyridin-2-ylcarbamoyl)-4-fluoro-4-methyl-pyrrolidin-1-yl]-2-oxo-ethyl}-1H-indazole-3-carboxylic acid amide] — 7.3-fold lower, 11 nM
- NC(=O)c1nn(CC(=O)N2[C@@H]3C[C@@H]3C[C@H]2C(=O)Nc2cccc(Cl)n2)c2ccccc12 [Example 20, 1{2-[(1R,3S,5R)-3-(6-Chloro-pyridin-2-ylcarbamoyl)-2-aza-bicyclo[3.1.0]hex-2-yl]-2-oxo-ethyl}-1H-indazole-3-carboxylic acid amide] — 20-fold lower, 4 nM
- NC(=O)c1nn(CC(=O)N2[C@@H]3C[C@@H]3C[C@H]2C(=O)Nc2cccc(I)n2)c2ccccc12 [Example 21, 1-{2-[(1R,3S,5R)-3-(6-Iodo-pyridin-2-ylcarbamoyl)-2-aza-bicyclo[3.1.0]hex-2-yl]-2-oxo-ethyl}-1H-indazole-3-carboxylic acid amide] — 27-fold lower, 3 nM
- COc1cc(Br)nc(NC(=O)[C@@H]2C[C@H]3C[C@H]3N2C(=O)Cn2nc(C(N)=O)c3ccccc32)c1 [Example 22, 1-{2-[(1R,3S,5R)-3-(6-Bromo-4-methoxy-pyridin-2-ylcarbamoyl)-2-aza-bicyclo[3.1.0]hex-2-yl]-2-oxo-ethyl}-1H-indazole-3-carboxylic acid amide] — 16-fold lower, 5 nM
- NC(=O)c1nn(CC(=O)N2C[C@H](F)[C@H](F)[C@H]2C(=O)Nc2cccc(Br)n2)c2ccccc12 [Example 23, 1-{2-[(2R,3R,4S)-2-(6-Bromo-pyridin-2-ylcarbamoyl)-3,4-difluoro-pyrrolidin-1-yl]-2-oxo-ethyl}-1H-indazole-3-carboxylic acid amide] — 10-fold lower, 8 nM
- NC(=O)c1nn(CC(=O)N2C[C@H](F)C[C@H]2C(=O)Nc2cccc(Br)n2)c2cnc(CF)cc12 [Example 24, 1-(2-((2S,4R)-2-(6-bromopyridin-2-ylcarbamoyl)-4-fluoropyrrolidin-1-yl)-2-oxoethyl)-5-(fluoromethyl)-1H-pyrazolo[3,4-c]pyridine-3-carboxamide] — 11-fold lower, 7 nM
- NC(=O)c1nn(CC(=O)N2CCS[C@H]2C(=O)Nc2cccc(Br)n2)c2ccccc12 [Example 25, (S)-N-(6-bromopyridin-2-yl)-3-(2-(3-carbamoyl-1H-indazol-1-yl)acetyl)thiazolidine-2-carboxamide] — 8-fold lower, 10 nM
- CNC(=O)c1nn(CC(=O)N2[C@@H]3C[C@@H]3C[C@H]2C(=O)Nc2cccc(Br)n2)c2ccccc12 [Example 26, 1-(2-((1R,3S,5R)-3-((6-bromopyridin-2-yl)carbamoyl)-2-azabicyclo[3.1.0]hexan-2-yl)-2-oxoethyl)-N-methyl-1H-indazole-3-carboxamide] — 2-fold lower, 40 nM
- NC(=O)c1nn(CC(=O)N2C3CC(C3)C2C(=O)Nc2cccc(Br)n2)c2ccccc12 (stereo not drawn) [Example 28, N-(6-bromopyridin-2-yl)-2-(2-(3-carbamoyl-1H-indazol-1-yl)acetyl)-2-azabicyclo[2.1.1]hexane-3-carboxamide] — 1.5-fold higher, 120 nM
